Assay in all cases: relative viability (nuclei count vs DMSO), 5 days (fraction); higher = more cells survive
Compound in the test “Ibrutinib + Crizotinib”: C=CC(=O)N1CCC[C@@H](n2nc(-c3ccc(Oc4ccccc4)cc3)c3c(N)ncnc32)C1 [Ibrutinib] + C[C@@H](Oc1cc(-c2cnn(C3CCNCC3)c2)cnc1N)c1c(Cl)ccc(F)c1Cl [Crizotinib] (partner 1 µM)
The method, boiled down:
(§1)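 Lung cancer cell lines, seeded in 1536-well plates, were treated the following day by pin tool with a single drug or with five library-drug doses (not always all listed) in √10 steps on top of a fixed anchor-drug dose. Cells were fixed and nuclei stained in one step after 5 days, and nuclei were counted. Relative viability is the nuclei count for treated wells divided by that for vehicle wells, reported as medians of duplicate plates.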

Compound in the test “BMX-IN-1 + Dasatinib”: C=CC(=O)Nc1cc(-n2c(=O)ccc3cnc4ccc(-c5ccc(NS(C)(=O)=O)cc5)cc4c32)ccc1C [BMX-IN-1] + Cc1nc(Nc2ncc(C(=O)Nc3c(C)cccc3Cl)s2)cc(N2CCN(CCO)CC2)n1 [Dasatinib] (partner 0.075 µM)
The method, boiled down: as §1

Compound in the test “Ibrutinib + Vorinostat”: C=CC(=O)N1CCC[C@@H](n2nc(-c3ccc(Oc4ccccc4)cc3)c3c(N)ncnc32)C1 [Ibrutinib] + O=C(CCCCCCC(=O)Nc1ccccc1)NO [Vorinostat] (partner 1 µM)
The method, boiled down: as §1

Compound in the test “PAC-1 + Navitoclax”: C=CCc1cccc(/C=N/NC(=O)CN2CCN(Cc3ccccc3)CC2)c1O [PAC-1] + CC1(C)CCC(c2ccc(Cl)cc2)=C(CN2CCN(c3ccc(C(=O)NS(=O)(=O)c4ccc(N[C@H](CCN5CCOCC5)CSc5ccccc5)c(S(=O)(=O)C(F)(F)F)c4)cc3)CC2)C1 [Navitoclax] (partner 0.5 µM)
In a few lines: as §1

As for SK-MES-1, the relative viability with Ibrutinib + Crizotinib (first compound 0.005 µM) was found to be 0.984; in the test with Ibrutinib + Crizotinib (first compound 0.01581 µM), 0.907; in the test with Ibrutinib + Crizotinib (first compound 0.05 µM), 1.02; with Ibrutinib + Crizotinib (first compound 0.5 µM) it was 0.555; in the test with BMX-IN-1 + Dasatinib (first compound 0.02 µM) it was 0.43; in the test with BMX-IN-1 + Dasatinib (first compound 0.2 µM) it was 0.317. In addition, the relative viability with BMX-IN-1 + Dasatinib (first compound 0.6325 µM) was 0.337; with BMX-IN-1 + Dasatinib (first compound 2 µM), 0.34; with Ibrutinib + Vorinostat (first compound 0.005 µM), 1.16; in the test with Ibrutinib + Vorinostat (first compound 0.01581 µM), 1.05; in the test with Ibrutinib + Vorinostat (first compound 0.05 µM), 1.07; with Ibrutinib + Vorinostat (first compound 0.1581 µM), 1.26. Moreover, the relative viability with Ibrutinib + Vorinostat (first compound 0.5 µM) stood at 0.747; in the test with PAC-1 + Navitoclax (first compound 0.02 µM), 1.09; in the test with PAC-1 + Navitoclax (first compound 0.06325 µM), 1.3; in the test with PAC-1 + Navitoclax (first compound 0.2 µM), 1.19; with PAC-1 + Navitoclax (first compound 2 µM), 1.21.
